Laboratory results: article PMC6894747 (PLoS Pathogens, 2019)
Positions of bridges follow the written chain, without caps; N, C: chain ends. Residues, ends and D or L forms follow the SMILES beside them.

What was measured:
[1] = test system: HIV-1 IIIB; assay: Inhibitors alone or in combination against HIV-1 IIIB; assay type: cell-based; conditions: mixture N6 / IBP-CP24, HIV-1 IIIB
Description: The samples were serially diluted and tested for their inhibitory activity on HIV-1 infection as described above. The data were analyzed for synergistic effect by calculating the combination index (CI) with the CalcuSyn software. CI values of <0.95 and >1.05 indicate synergy and antagonism, respectively. CI <0.1, 0.1–0.3, 0.3–0.7, 0.7–0.85, and 0.85–0.90 indicate very strong synergism, strong synergism, synergism, moderate synergism, and slight synergism, respectively. Fold of dose reduction was calculated with the ratio of concentrations of inhibitor testing alone and in combination.

[2] = target: T1, 6-HB formation between N36 and C34 (Human immunodeficiency virus type 1 group M subtype B, UniProt P04578); assay: Inhibition of 6-HB formation, sandwich ELISA; assay type: biochemical, HIV-1; conditions: N36 and C34 1 μM each, triplicate
T1 construct: purchased KareBay Biochem, Inc; host or cells: solid-phase chemical synthesis
T1 sequence (P04578 546-581): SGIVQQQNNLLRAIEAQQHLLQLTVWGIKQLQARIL
Description: The inhibitory activity of peptides on 6-HB formation was measured by the sandwich ELISA method, as previously described. Briefly, a 96-well polystyrene plate (Costar, Corning Inc., Corning, NY) was coated with rabbit anti-gp41 (NY-364) (2 μg/mL in 0.1 M Tris, pH 8.8). […] The mixture was added to the NY-364-coated plate, followed by incubation at room temperature for 60 min and washed three times with a washing buffer (PBS containing 0.1% Tween 20). The monoclonal antibody NC-1(1 μg/mL) was added to the plate and incubated at room temperature for 60 min, followed by washing three times. Rabbit anti-mouse IgG-HRP (Sigma) (1:3000 diluted) was added to each well and incubated at 37 °C for 1 h. The substrate 3, 3’, 5, 5’-tetramethylbenzidine (TMB; Sigma) was then added sequentially. Absorbance at 450 nm was measured using an ELISA reader (Ultra 384; Tecan, Research Triangle Park, NC). The percent inhibition by the peptides and the IC50 were calculated, as previously described.

[3] = test system: Pseudoviruses; assay: Inhibition of pseudotyped HIV-1 infection, panel average; assay type: cell-based; conditions: average IC50 of 12 pseudotyped strains
Excerpt: HIV-1 pseudoviruses were generated, as described previously.

## CC[C@H](C)[C@H](NC(=O)[C@H](CC(C)C)NC(=O)[C@H](CCC(=O)O)NC(=O)[C@H](CCC(=O)O)NC(=O)[C@@H](NC(=O)[C@H](CCCCN)NC(=O)[C@H](CCCCN)NC(=O)[C@@H](NC(=O)[C@H](Cc1ccc(O)cc1)NC(=O)[C@H](CCC(=O)O)NC(=O)[C@H](CCC(=O)O)NC(=O)[C@@H](NC(=O)[C@H](CCCCN)NC(=O)[C@H](CCCCN)NC(=O)[C@H](CC(=O)O)NC(=O)[C@H](Cc1c[nH]c2ccccc12)NC(=O)[C@H](CCC(=O)O)NC(=O)[C@H](CCC(=O)O)NC(=O)[C@H](Cc1c[nH]c2ccccc12)NC(=O)[C@@H](NC(=O)[C@H](CCSC)NC(=O)[C@@H](NC(=O)[C@@H]1CSSC[C@H](NC(=O)[C@@H](N)CC(=O)O)C(=O)N[C@@H](C)C(=O)N[C@@H](Cc2c[nH]c3ccccc23)C(=O)N[C@@H](Cc2c[nH]cn2)C(=O)N[C@@H](CC(C)C)C(=O)NCC(=O)N[C@@H](CCC(=O)O)C(=O)N[C@@H](CC(C)C)C(=O)N[C@@H](C(C)C)C(=O)N[C@@H](Cc2c[nH]c3ccccc23)C(=O)N1)[C@@H](C)O)[C@@H](C)O)[C@@H](C)CC)[C@@H](C)O)[C@@H](C)CC)C(=O)N[C@@H](CCCCN)C(=O)N[C@@H](CCCCN)C(=O)N[C@@H](CO)C(=O)O [IBP-CP24] (H-DCAWHLGELVWCTMTWEEWDKKIEEYTKKIEELIKKS-OH; disulfide 2-12; N-terminus and C-terminus assumed)
[1]
  Dose reduction: 3.6 fold
[2]
  inhibition of 6-HB formation between N36 and C34: much stronger inhibition on 6-HB formation than CP24 itself
[3]
  fold more potent than CP24, pseudotyped strains: ~4.9 fold
  fold more potent than T20, pseudotyped strains: about 24.2 fold
